Laboratory results reported in US9708498B2, “Azo compound, ink containing azo compound, display including said ink and electronic paper” (MITSUBISHI CHEMICAL CORPORATION, priority 2012, dated 2017).

What was measured:
Type in all cases: physicochemical
[1] = Light fastness test (xenon light weatherometer, retention of absorbance); settings: retention of absorbance at λmax; n-decane solution, xenon light 340 nm, 0.55 W/m^2, 40 hours, 33° C.
Method: The light fastness of compounds 1 to 3, 5, and 7 to 11 and comparative compound 1 was determined in the following manner. In 0.99 g of n-decane was dissolved 0.01 of each compound. This solution was introduced into a cell having an optical-path length of 0.004 mm, and this cell was sealed with an epoxy resin. Using a weatherometer (Atlas Ci4000), the cell was irradiated with xenon light (340 nm; irradiance, 0.55 W/m^2) for 40 hours. During the irradiation, the internal temperature of the test chamber was kept at 33° C.
The retention of each compound was calculated using the following equation.

[2] = Solubility C of the compound in n-decane at 5° C. (saturated solution, absorbance) and product εC; settings: for Solubility C: in n-decane at 5° C., 24 hours, 0.1-μm filter; for εC: product of ε and saturation concentration C in n-decane at 5° C.
Method: The solubility C of each compound in n-decane was determined in the following manner. Each of compounds 1 to 11 and comparative compound 1 was added to n-decane until some of the compound came to remain undissolved, and the mixture was subjected to an ultrasonic treatment at 30° C. for 30 minutes.
After the addition, each mixture was subjected to a 30-minute ultrasonic treatment at 30° C. This mixture was allowed to stand at 5° C. for 24 hours and then subjected to centrifugal filtration with a 0.1-μm filter using a miniature centrifugal machine (centrifugal force, 5,200×g). The saturated solution obtained was diluted to an adequate concentration and examined for absorption spectrum with Hitachi Spectrophotometer U-4100 using a quartz cell having a measuring optical-path length of 10 mm. The concentration of each compound was determined from a relationship between the absorbance at the absorption maximum wavelength λmax (nm) and the molar extinction coefficient ε (L·mol^−1·cm^−1) determined beforehand, and the solubility C (mol·L^−1) thereof was calculated. Furthermore, the product εC of the molar extinction coefficient ε (L·mol^−1·cm^−1) and the solubility C (mol·L^−1) was determined.

[3] = Absorption spectrum of n-decane solution: solution color, absorption maximum wavelength λmax, molar extinction coefficient ε; settings: for Absorption maximum wavelength λmax: 10 mm quartz cell; for ε (molar extinction coefficient): at λmax
Method: The solution color, absorption maximum wavelength (λmax), solubility C in 5° C. n-decane, molar extinction coefficient ε, and εC of each ink are summarized in Table 4.
One milligram of each of compound 1 and comparative compounds 1 and 2 was dissolved in 100 mL of the solvent, and the solution was examined for absorption spectrum with Hitachi Spectrophotometer U-4100 using a quartz cell having a measuring optical-path length of 10 mm. From the spectrum obtained, the absorption maximum wavelength λmax (nm) and the molar extinction coefficient E (L·mol^−1·cm^−1) were determined.

[4] = Solubility of solvent in water (gas chromatography); settings: pure water, 25° C.
Method: Into a 110-mL vial were introduced 30 g of pure water and 8 g of the solvent. This vial was shaken for 4 hours at a frequency of 200 times per minute in a 25° C. thermostatic chamber. The liquid which had undergone the shaking was centrifuged (6,000×g; for 5 minutes), and the aqueous layer was sampled. The concentration of the solvent dissolved therein was determined by gas chromatography.

[5] = Relative permittivity of solvent (impedance meter method); settings: 1 kHz, 22° C.
Text: Precision LCR Meter 4284A, manufactured by Agilent Technologies, Inc., was used to make a measurement by the impedance meter method. […] Relative permittivity=(equivalent parallel capacitance)×(electrode spacing)/(electrode area)/(permittivity of vacuum (ε0))

Structure (SMILES) | Light fastness [1] | Solubility C [2] | εC [2] | Absorption maximum wavelength λmax [3] [nm] | ε (molar extinction coefficient) [3] [L/mol/cm] | solubility at 4 h [4] [µg/mL] | relative permittivity [5]
CCCCc1ccc(N=Nc2sc(N=Nc3cc(OCC)c(N(CC(CC)CCCC)CC(CC)CCCC)cc3OCC)c(C#N)c2C)cc1 (stereo not drawn) [Compound 4] | A (retention of 100-90%) | ≧10.5 mass % | ≧6000 cm^−1 | 638 | 54000 |  | 
CCCCCc1ccc(N=Nc2cc(C(=O)OCCC)c(N=Nc3ccc(N(CC(CC)CCCC)CC(CC)CCCC)cc3CC)s2)cc1 (stereo not drawn) [Compound 5] | A (retention of 100-90%) | ≧20.1 mass % | ≧10000 cm^−1 | 591 | 50000 |  | 
CCCCCCSc1nnc(N=Nc2cc(OC)c(N(Cc3ccc(C(C)(C)C)cc3)Cc3ccc(C(C)(C)C)cc3)cc2NC(C)=O)s1 [compound 1, reference compound] | D (retention of 49% or less) | 9.1 mass % | 4700 cm⁻¹ | 526 | 50000 |  | 
CCCCc1ccc(N=Nc2cc(C#N)c(N=Nc3sc(N(CC(CC)CCCC)CC(CC)CCCC)nc3C(C)(C)C)s2)c(C)c1 (stereo not drawn) [Compound 11] | A (retention of 100-90%) | ≧19.7 mass % | ≧12000 cm^−1 | 595 | 59000 |  | 
CCCCc1ccc(N=Nc2cc(C#N)c(N=Nc3sc(N(CC(CC)CCCC)CC(CC)CCCC)nc3C(C)(C)C)s2)cc1 (stereo not drawn) [Compound 10] | A (retention of 100-90%) | ≧15 mass % | ≧9000 cm^−1 | 595 | 57000 |  | 
CCCCc1ccc(N=Nc2sc(N=Nc3ccc(N(CC(CC)CCCC)CC(CC)CCCC)cc3C)c(C#N)c2C)cc1 (stereo not drawn) [Compound 2] | A (retention of 100-90%) | 1.7 mass % | 1220 cm⁻¹ | 608 | 62000 |  | 
CCCCCCCCCC [n-decane] |  |  |  |  |  | ≤ 1 | 2.0
CCCCc1ccc(N=Nc2cc(C(=O)OCCC)c(N=Nc3ccc(N(CC(CC)CCCC)CC(CC)CCCC)cc3C)s2)cc1 (stereo not drawn) [Compound 7] | A (retention of 100-90%) | 17.4 mass % | 9500 cm⁻¹ | 590 | 51000 |  | 
CCCCC(CC)CN(CC(CC)CCCC)c1ccc(N=Nc2sc(N=Nc3ccc(CCC)cc3)c(C)c2C#N)c(NC(C)=O)c1 (stereo not drawn) [Compound 3] | A (retention of 100-90%) | ≧34.3 mass % | ≧20000 cm^−1 | 617 | 70000 |  | 
